The source of these data is patent publication US11540542B2, “Taste modulating aldehydes” (TAKASAGO INTERNATIONAL CORPORATION, priority 2016, dated 2023).

The experiment has as its system trained experts. Nature of the experiment: Monkfruit juice beverage taste comparison, trained experts. The conditions noted are these: 0.000001% cut of 1% 2,6-nonadienal in ethyl acetate, used at 0.10% in Monkfruit beverage (juice concentrate 0.15%); three trained experts. The procedure: A taste comparison was conducted by combining and mixing 0.000001% cut of 1% 2,6-nonadienal (I % in ethanol) in ethyl acetate and used that dilution at 0.10% in a Monkfruit beverage in water, wherein Monkfruit juice concentrate was present at 0.15%. Three trained experts evaluated the combination against a control of Monkfruit juice without the taste modulation compound.

Each structure is given as a SMILES string.

As to `CCC=CCCC=CC=O` [2,6-nonadienal], the “modulation of off-notes of Monkfruit juice versus control” value is recorded as “demonstrated a modulation of the off-notes”.
